Consider nine compounds from ChEMBL document CHEMBL4715692, “Design, synthesis and activity evaluation of novel peptide fusion inhibitors targeting HIV-1 gp41” (Bioorg Med Chem, 2016).

Broadly, the IC50 is the concentration that inhibits the measured activity by half.

Calls of active or inactive are those of the source. No cut-off for these calls is given here. Where a SMILES comes first, the peptide text is derived from it. The star is where a group is joined. X1 = CCCCCCCCCCCCCCC(=O)O* Bounds are passed on as bounds.

The nature of test [1]: Inhibition of gp41 in HIV1 3B infected in human HeLa-MAGI-CCR5 cells harboring reporter gene comprising HIV1 LTR in the upstream and lacZ gene of Escherichia coli in the downstream assessed as inhibition of cell-cell fusion by optical microscopy analysis. The class given is cell-based. The settings on record: Human immunodeficiency virus 1, 3B. (Reporter assays use an easily measured gene product as a stand-in for the process of interest.)

For test [2], the system named is Human immunodeficiency virus 1. As to the kind of experiment: Binding affinity to gp41 NHR helix in HIV1 assessed as interaction between compound-gp41 5-helix causing band deviation incubated for 1 hr by SDS-PAGE analysis.
Test [3] deals with Human immunodeficiency virus 1. In words: Binding affinity to gp41 NHR helix in HIV1 assessed as inhibition of gp41 6-helix conformation incubated for 1 hr by SDS-PAGE analysis.
Test [4] relates to Human immunodeficiency virus 1. As to the kind of experiment: Binding affinity to gp41 NHR helix in HIV1 assessed as interaction between compound-gp41 5-helix causing band deviation incubated for 1 hr by native PAGE analysis.
Test [5] concerns Human immunodeficiency virus 1. In words: Binding affinity to gp41 NHR helix in HIV1 assessed as inhibition of gp41 6-helix conformation incubated for 1 hr by native PAGE analysis.

Regarding `CC[C@H](C)[C@H](NC(=O)[C@H](CC(C)C)NC(=O)[C@H](CCC(=O)O)NC(=O)[C@H](CCC(=O)O)NC(=O)[C@@H](NC(=O)[C@H](CCCCN)NC(=O)[C@H](CCCCN)NC(=O)[C@@H](NC(=O)[C@H](Cc1ccc(O)cc1)NC(=O)[C@H](CCCNC(=N)N)NC(=O)[C@H](CCC(=O)O)NC(=O)[C@@H](NC(=O)[C@H](CCC(=O)O)NC(=O)[C@H](CC(=O)O)NC(=O)[C@H](CCCNC(=N)N)NC(=O)[C@H](Cc1c[nH]c2ccccc12)NC(=O)[C@H](CC(=O)O)NC(=O)[C@H](CS)NC(=O)[C@H](Cc1c[nH]c2ccccc12)NC(=O)[C@@H](NC(=O)[C@@H](N)CCSC)[C@@H](C)O)[C@@H](C)CC)[C@@H](C)O)[C@@H](C)CC)C(=O)N[C@@H](CCCNC(=N)N)C(=O)N[C@@H](C)C(=O)N[C@@H](C)C(=O)N[C@@H](CCC(N)=O)C(=O)N[C@@H](CCC(=O)O)C(=O)N[C@@H](CC(C)C)C(=O)N[C@@H](CCC(N)=O)C(=O)N[C@@H](CCC(=O)O)C(=O)N[C@@H](CCCCN)C(=O)N[C@@H](CC(N)=O)C(=O)N[C@@H](CCC(=O)O)C(=O)N[C@@H](C)C(=O)N[C@@H](C)C(=O)N[C@@H](CC(C)C)C(=O)N[C@@H](CCCCN)C(=O)N[C@@H](CCC(=O)O)C(=O)N[C@@H](CC(C)C)C(=O)O`, the IC50 in test [1] came to 159 nM.
Consider `CC[C@H](C)[C@H](NC(=O)[C@H](CC(C)C)NC(=O)[C@H](CCC(=O)O)NC(=O)[C@H](CCC(=O)O)NC(=O)[C@@H](NC(=O)[C@H](CCCCN)NC(=O)[C@@H](CCCCN)NC(=O)[C@@H](NC(=O)[C@H](Cc1ccc(O)cc1)NC(=O)[C@H](CCCNC(=N)N)NC(=O)[C@H](CCC(=O)O)NC(=O)[C@@H](NC(=O)[C@H](CCC(=O)O)NC(=O)[C@H](CC(=O)O)NC(=O)[C@H](CCCNC(=N)N)NC(=O)[C@H](Cc1c[nH]c2ccccc12)NC(=O)[C@H](CC(=O)O)NC(=O)[C@H](CS)NC(=O)[C@H](Cc1c[nH]c2ccccc12)NC(=O)[C@@H](NC(=O)[C@@H](N)CCSC)[C@@H](C)O)[C@@H](C)CC)[C@@H](C)O)[C@@H](C)CC)C(=O)N[C@@H](CCCNC(=N)N)C(=O)N[C@@H](C)C(=O)N[C@@H](C)C(=O)N[C@@H](CCC(N)=O)C(=O)N[C@@H](CCC(=O)O)C(=O)N[C@@H](CC(C)C)C(=O)N[C@@H](CCC(N)=O)C(=O)N[C@@H](CCC(=O)O)C(=O)N[C@@H](CCCCN)C(=O)N[C@@H](CC(N)=O)C(=O)N[C@@H](CCC(=O)O)C(=O)N[C@@H](C)C(=O)N[C@@H](C)C(=O)N[C@@H](CC(C)C)C(=O)N[C@@H](CCCCN)C(=O)N[C@@H](CCC(=O)O)C(=O)N[C@@H](CC(C)C)C(=O)O`, for which, in test [1], the half-maximal inhibitory concentration (IC50) was 57.2 nM.
`CCCCCCCCCCCCCCC(=O)OC(=O)[C@H](CCC(N)=O)NC(=O)[C@H](CCC(N)=O)NC(=O)[C@H](CCCNC(=N)N)NC(=O)[C@H](CCC(N)=O)NC(=O)[C@H](C)NC(=O)[C@H](CC(=O)O)NC(=O)[C@H](CCCCN)NC(=O)[C@@H](NC(=O)[C@H](CC(C)C)NC(=O)[C@H](C)NC(=O)[C@H](CCC(=O)O)NC(=O)[C@@H](NC(=O)[C@H](CC(N)=O)NC(=O)[C@H](CCCNC(=N)N)NC(=O)[C@@H](NC(=O)[C@H](Cc1ccc(O)cc1)NC(=O)[C@H](CC(N)=O)NC(=O)[C@H](CCC(=O)O)NC(=O)[C@@H](NC(=O)[C@H](CCC(=O)O)NC(=O)[C@H](CCCNC(=N)N)NC(=O)[C@H](CC(=O)O)NC(=O)[C@H](Cc1c[nH]c2ccccc12)NC(=O)[C@H](CCC(N)=O)NC(=O)[C@H](CCC(=O)O)NC(=O)[C@H](Cc1c[nH]c2ccccc12)NC(=O)[C@@H](NC(=O)[C@H](CCCCN)NC(=O)[C@H](CC(N)=O)NC(=O)[C@H](CC(N)=O)NC(=O)[C@H](Cc1c[nH]c2ccccc12)NC(=O)[C@H](CCC(=O)O)NC(=O)[C@@H](N)CCC(N)=O)[C@@H](C)O)[C@@H](C)CC)C(C)C)[C@@H](C)CC)[C@@H](C)CC` (H-QEWNNKTWEQWDREIENYVRNIEALIKDAQRQQ-X1): in test [1], the 50% inhibitory concentration (IC50) is 222 nM.
As for “H-MTWCDWRDEIERYTKKIEELIRAAQEWQEKNEAALKEL-OH”, the outcome in test [2] and in test [4] was Active. The IC50 in test [1] stood at 53 nM. Also, the inhibition entry in test [3] and in test [5] was “Active” in each case.
As for H-QEWNNKTWEQWDREIENYVRNIEALIKDAQRQQ-OH, in test [1], the half-maximal inhibitory concentration (IC50) was 866 nM.
“H-RAWVAWRNKIDRYTKKIEELIRELIRAAQELQEKNEAALKEL-OH”: the IC50 in test [1] was 338 nM.
In the case of “H-RAWVAWRNKIENYTRRIEELIEELIRRSQEQERRQ-OH”, the IC50 in test [1] is over 2430 nM.
As to “H-SIWNNMTWCDWRDEIEEYTKKIEELIKKSQEQASWNWF-OH”, the IC50 in test [1] is 203 nM.
Regarding H-VEWNARAWVAWRNRIENYAKKIEKLIRQSQEQQ-OH, the half-inhibitory concentration (IC50) in test [1] amounted to 1000 nM.
